Measured values reported in paper PMC8482815, “Targeting Host Glycolysis as a Strategy for Antimalarial Development” (Frontiers in Cellular and Infection Microbiology, 2021).
Where “and” joins values, the source holds several entries; their conditions need not be identical. Equal entries are not always repeated.

Tested on: human erythrocytes
Test: Untargeted metabolomics and 13C-glucose tracing of enolase inhibitor treated erythrocytes
Format: cell-based
Conditions: 6h
Method: Freshly collected erythrocytes were washed, resuspended to 10% hematocrit in buffer [25mM HEPES (pH 7.4), 120mM NaCl, 5.4mM KCl, 1.8mM CaCl2, and 1mM NaH2PO4], incubated for 1 hour at 37°C, then centrifuged at 2000xg for 5 minutes at 4°C, resuspended in fresh wash buffer to 30-40% hematocrit, and split into 210µL aliquots of packed erythrocytes. […] All samples were incubated at 37°C shaking at 500 RPM. Triplicate samples of supernatants and packed erythrocytes were collected at 0, 0.5, 1, and 6-hour intervals and snap-frozen in liquid N2.
RBC and media samples were extracted at 1:10 and 1:20 dilutions, respectively, in 5:3:2 MeOH : MeCN:H2O v/v/v, and supernatants analyzed on a Thermo Vanquish UHPLC coupled to a Thermo Q Exactive mass spectrometer, as extensively described ([Nemkov et al., 2015]; [Nemkov et al., 2017]). The extraction buffer was supplemented with 40uM 3-^13C lactate to allow absolute quantification of lactate isotopologues, including lactate generated via glycolysis ([1,2,3-^13C3] enriched) vs. the pentose phosphate pathway ([2,3-^13C2] enriched), as described ([Reisz et al., 2016]). Metabolite assignments, peak area integration and isotopologues distributions were determined using Maven (Princeton University) ([Nemkov et al., 2015]; [Nemkov et al., 2017]).
Data were auto-scaled and normalized to zero-hour time points. Metabolites were removed from the dataset if greater than 50% of the samples contained missing values or the relative standard deviation among replicates exceeded 25%. Additionally, data was filtered using the interquartile range to reduce near-constant values from the experiment by 5%.
A principal component analysis of preprocessed data was plotted with the 95% confidence interval minimum volume enclosing ellipsoid for each respective group (MetaboAnalyst, cluster, plotly). A two-way repeated measures analysis of variance (ANOVA) was performed with multiple comparisons corrected for using a false discovery rate p-value cutoff of 0.05. Metabolite-Pathway analysis was performed using the R package of MetaboAnalyst, as previously described ([Xia and Wishart, 2010]). Metabolite-Protein nodal analysis was performed using omicsnet.ca and as previously described ([Zhou and Xia, 2018]).

[1] = treated erythrocytes, one value per replicate sample, polarity +
[2] = treated erythrocytes, one value per replicate sample, polarity -
[3] = treated erythrocytes, replicate samples

CC(C)(C)C(=O)OCOP(=O)(OCOC(=O)C(C)(C)C)C1CC(O)N(O)C1=O (stereo not shown) [POMSF]
AMP level (metabolomics signal) (replicate samples): 5.02E+05 and 4.09E+05 and 5.85E+05 | ATP level (metabolomics signal) (replicate samples): 1.58E+04 and 9.84E+04 and 9.63E+04 | Adenine level (metabolomics signal) (replicate samples): 7.75E+04 and 1.23E+05 and 1.12E+05 | Cytosine level (metabolomics signal) (replicate samples): 8.05E+04 and 4.16E+04 and 5.19E+04 | L-alanine level (metabolomics signal) (replicate samples): 8.35E+06 and 9.19E+06 and 8.31E+06 | L-arginine level (metabolomics signal) (replicate samples): 2.95E+06 and 0.00E+00 and 2.67E+06 | L-asparagine level (metabolomics signal) (replicate samples): 5.77E+06 and 5.60E+06 and 5.22E+06 | L-aspartate level (metabolomics signal) (replicate samples): 1.31E+07 and 1.25E+07 and 1.18E+07 | L-cysteine level (metabolomics signal) (replicate samples): 3.97E+05 and 1.14E+05 and 2.20E+05 | L-glutamate level (metabolomics signal) (replicate samples): 7.50E+06 and 6.15E+06 and 6.74E+06 | L-glutamine level (metabolomics signal) (replicate samples): 6.26E+07 and 5.76E+07 and 5.48E+07 | L-histidine level (metabolomics signal) (replicate samples): 1.46E+06 and 1.38E+06 and 1.44E+06 | L-isoleucine level (metabolomics signal) (replicate samples): 1.17E+07 and 1.31E+07 and 1.49E+07 | L-leucine level (metabolomics signal) (replicate samples): 1.27E+08 and 1.58E+08 and 2.15E+08 | L-lysine level (metabolomics signal) (replicate samples): 1.43E+06 and 1.33E+06 and 1.52E+06 | L-methionine level (metabolomics signal) (replicate samples): 1.27E+07 and 1.48E+07 and 1.83E+07 | L-phenylalanine level (metabolomics signal) (replicate samples): 6.89E+06 and 7.47E+06 and 8.39E+06 | L-proline level (metabolomics signal) (replicate samples): 7.25E+07 and 6.63E+07 and 6.78E+07 | L-serine level (metabolomics signal) (replicate samples): 4.64E+06 and 4.68E+06 and 4.28E+06 | L-threonine level (metabolomics signal) (replicate samples): 6.95E+06 and 7.99E+06 and 7.08E+06 | L-tryptophan level (metabolomics signal) (replicate samples): 1.43E+06 and 1.21E+06 and 1.71E+06 | L-tyrosine level (metabolomics signal) (replicate samples): 1.74E+07 and 2.17E+07 and 2.50E+07 | L-valine level (metabolomics signal) (replicate samples): 1.73E+08 (2×) and 1.89E+08 | dCMP level (metabolomics signal) (replicate samples): 0.00E+00 and 1.19E+04 and 1.51E+04 | dTMP level (metabolomics signal) (replicate samples): 2.61E+04 and 1.28E+06 and 7.09E+05 | glycine level (metabolomics signal) (replicate samples): 1.74E+06 and 1.71E+06 and 1.54E+06 | N-Acyl-D-aspartate (C06380) metabolite signal [1]: 6.19E+04 and 7.22E+04 and 7.18E+04 | Poly-gamma-D-glutamate (C05723) metabolite signal [1]: 4.28E+07 and 3.89E+07 and 3.91E+07 | D-Ribitol 5-phosphate (C01068) metabolite signal [2]: 0.00E+00 and 1.62E+04 and 1.65E+04 | D-glucono-1,5-lactone (C00198) metabolite signal [2]: 1.21E+04 and 2.10E+05 and 2.85E+05 | L-Noradrenaline (C00547) metabolite signal [2]: 1.67E+04 and 1.81E+04 and 3.13E+04 | Oxalosuccinate (C05379) metabolite signal [2]: 3.74E+04 and 9.19E+04 and 1.02E+05 | Pyridoxamine (C00534) metabolite signal [2]: 1.97E+04 and 7.81E+03 and 6.44E+03 | Thioredoxin disulfide (C00343) metabolite signal [2]: 0.00E+00 and 8.04E+04 and 2.51E+04 | 1-4-beta-D-Xylan (metabolite signal) [3]: 2.44E+04 and 1.72E+05 and 1.77E+05 | 2-Hydroxyglutarate/Citramalate (C02630) metabolite signal [3]: 8.76E+03 and 5.83E+04 and 8.08E+04 | 5-6-Dihydrothymine (C00906) metabolite signal [3]: 7.42E+04 and 3.03E+05 and 2.79E+05 | 5-10-Methenyltetrahydrofolate (metabolite signal) [3]: 1.08E+05 and 1.27E+05 (2×) | 5-Hydroxyisourate (C11821) metabolite signal [3]: 4.60E+06 and 7.03E+06 and 4.57E+06 | 5-L-Glutamyl-taurine (metabolite signal) [3]: 1.69E+05 and 1.70E+05 and 1.66E+05 | 5-Oxoproline (metabolite signal) [3]: 7.65E+04 and 8.27E+05 and 8.67E+05 | (S)(+)-Allantoin (C02350) metabolite signal [3]: 1.76E+03 and 8.43E+03 and 0.00E+00 | Allantoate (C00499) metabolite signal [3]: 5.45E+05 and 3.06E+05 and 4.74E+05 | Ascorbate (metabolite signal) [3]: 3.17E+02 and 8.49E+04 and 7.10E+04 | CMP-N-acetylneuraminate (metabolite signal) [3]: 0.00E+00 and 1.60E+04 and 3.30E+04 | Carnosine (metabolite signal) [3]: 1.68E+05 and 2.26E+05 and 1.66E+05 | Citrate (C00158) metabolite signal [3]: 1.56E+03 and 1.77E+04 and 2.42E+04 | Creatine (metabolite signal) [3]: 1.60E+08 and 1.66E+08 and 1.57E+08 | Creatinine (metabolite signal) [3]: 2.21E+06 and 2.25E+06 and 2.28E+06 | Cys-Gly (metabolite signal) [3]: 7.06E+05 and 5.27E+05 and 4.56E+05 | D-Glucosamine (metabolite signal) [3]: 2.84E+05 and 2.82E+05 and 2.01E+05 | D-Glucose (C00031) metabolite signal [3]: 3.39E+04 and 4.32E+06 and 3.64E+06 | D-Ribose (C00121) metabolite signal [3]: 1.37E+04 and 1.43E+05 and 1.11E+05 | Dehydroascorbate (metabolite signal) [3]: 0.00E+00 and 3.73E+04 and 1.82E+04 | Dihydrofolate (metabolite signal) [3]: 1.85E+06 and 9.70E+05 and 1.18E+06 | Dimethylglycine (metabolite signal) [3]: 7.46E+05 and 8.20E+05 and 5.98E+05 | Diphosphate (C00013) metabolite signal [3]: 0.00E+00 and 2.99E+04 and 2.16E+04 | Fumarate (C00122) metabolite signal [3]: 3.34E+03 and 7.81E+04 and 1.06E+05 | Glutathione (C00051) metabolite signal [3]: 4.14E+07 and 3.33E+07 and 3.37E+07 | Glutathione disulfide (metabolite signal) [3]: 0.00E+00 and 1.62E+05 and 3.64E+05 | Hypoxanthine (C00262) metabolite signal [3]: 7.62E+03 and 4.26E+03 and 3.54E+03 | IMP (C00130) metabolite signal [3]: 1.27E+04 and 8.26E+04 and 5.76E+04 | Inosine (C00294) metabolite signal [3]: 1.21E+03 and 4.59E+04 and 5.50E+04 | L-Citrulline (metabolite signal) [3]: 2.43E+06 and 3.35E+06 and 2.92E+06 | L-Homoserine (metabolite signal) [3]: 1.60E+04 and 2.75E+05 and 2.50E+05 | Lactate (C01432) metabolite signal [3]: 9.68E+05 and 1.69E+07 and 1.76E+07 | Malate (C00149) metabolite signal [3]: 3.14E+03 and 1.07E+05 and 1.56E+05 | Mannitol (C00392) metabolite signal [3]: 6.48E+03 and 1.86E+05 and 1.78E+05 | N-Acetylneuraminate (metabolite signal) [3]: 0.00E+00 and 1.33E+04 and 1.50E+04 | N-Glycoloyl-neuraminate (metabolite signal) [3]: 0.00E+00 and 1.02E+05 and 7.37E+04 | NAD+ (C00003) metabolite signal [3]: 5.65E+04 and 4.00E+04 and 9.30E+04 | Nicotinamide (C00153) metabolite signal [3]: 2.54E+07 and 3.18E+07 and 2.67E+07 | Ornithine (metabolite signal) [3]: 1.63E+06 and 1.68E+06 and 1.77E+06 | Oxaloacetate (C00036) metabolite signal [3]: 1.48E+03 and 3.44E+04 and 3.60E+04 | Phosphoserine (metabolite signal) [3]: 5.41E+04 and 5.91E+04 and 2.74E+04 | Putrescine (metabolite signal) [3]: 3.78E+04 and 4.55E+04 and 4.46E+04 | Pyridoxal (C00250) metabolite signal [3]: 3.76E+04 and 4.39E+04 and 5.36E+04 | Pyruvate (C00022) metabolite signal [3]: 8.68E+04 and 2.04E+06 and 2.17E+06 | S-Glutathionyl-L-cysteine (metabolite signal) [3]: 0.00E+00 and 1.18E+05 and 1.30E+05 | Sedoheptulose 1-phosphate (C06222) metabolite signal [3]: 0.00E+00 and 1.66E+04 and 1.92E+04 | Spermidine (metabolite signal) [3]: 6.37E+06 and 6.43E+06 and 6.27E+06 | Spermine (metabolite signal) [3]: 8.12E+06 and 8.01E+06 and 7.75E+06 | Succinate (C00042) metabolite signal [3]: 1.40E+04 and 6.55E+04 and 4.55E+04 | Thymidine (C00214) metabolite signal [3]: 4.03E+04 and 7.72E+03 and 7.98E+03 | UDP (C00015) metabolite signal [3]: 0.00E+00 and 1.32E+05 and 7.27E+04 | UDP-N-acetyl-D-glucosamine (metabolite signal) [3]: 0.00E+00 and 6.00E+03 and 1.01E+04 | UDP-glucose (C00029) metabolite signal [3]: 0.00E+00 and 8.80E+03 and 1.03E+04 | Urate (C00366) metabolite signal [3]: 1.39E+04 and 2.30E+04 and 2.01E+04 | Xanthine (C00385) metabolite signal [3]: 8.29E+04 and 9.81E+04 and 9.24E+04 | alpha-D-Glucosamine 1-phosphate (metabolite signal) [3]: 8.54E+05 and 1.67E+06 and 1.26E+06 | alpha-D-Ribose 1-phosphate (C00620) metabolite signal [3]: 0.00E+00 and 2.89E+04 and 3.75E+04 | gamma-Glutamyl-gamma-aminobutyrate (metabolite signal) [3]: 5.89E+04 and 6.64E+04 and 6.00E+04 | gamma-L-Glutamyl-D-alanine (metabolite signal) [3]: 3.86E+02 and 3.06E+04 and 3.37E+04 | gamma-L-Glutamyl-L-cysteine (metabolite signal) [3]: 4.08E+03 and 2.68E+04 and 3.24E+04
